Source: US5578622A, “Isothiazole derivatives and their uses” (Asamura Patent Office, priority 1994, dated 1996)

Legend:
Type in all cases: cell-based
[1] = test system: Candida albicans IFO 1270; experiment: In vitro antimycotic activity on Candida albicans; conditions: IFO1270, 10 (ppm), SGB, 37° C., 48 hours, turbidity at 650 nm, read-out: Antimycotic activity (growth inhibitory rate), C.albicans
Experimental: 3-1 In vitro antimycotic activity on Candida albicans
Candida albicans IFO 1270 pre-cultured on a Sabouraud's glucose agar (SGA) plate medium at 37° C. […] was suspended in a sterilized physiological salt solution. The number of fungi in the resulting suspension was counted with a globulimeter, and adjusted so as to be 1×10^7 cell/ml with a sterilized physiological salt solution. This solution was used as an inoculum solution. Thereafter, 0.1 ml of this solution and 0.1 ml of a dimethyl sulfoxide (DMSO) solution of the test compound were added to 9.8 ml of Sabouraud's glucose broth (SGB), and shake-cultured at 37° C. for 48 hours. After culture, the medium turbidity was measured at 650 nm, and the growth-inhibitory rate of the fungus was calculated according to the following equation.
Growth inhibitory rate (%)=(1-W/Y)×100
Y: Medium turbidity of DMSO control group
W: Medium turbidity of test compound group
From this inhibitory rate, the antimycotic activity was shown by the symbols A to D. The test results of the test compounds are shown in Table 4.

[2] = test system: Aspergillus fumigatus TIMM 0063; experiment: In vitro antimycotic activity on Aspergillus fumigatus; conditions: TIMM0063, 10 (ppm), Casitone agar, 37° C., 48 hours, read-out: Antimycotic activity (growth inhibitory rate), A.fumigatus
Experimental: 3-2 In vitro antimycotic activity on Aspergillus fumigatus.
To Aspergillus fumigatus TIMM 0063 precultured at 37° C. for 48 hours on a potato dextrose agar (PDA) slant medium was added a sterilized physiological salt solution containing 0.1%(W/V) Tween 80. After conidia were made free from the solution, the solution was filtered through a sterilized two-sheet gauze to remove the mycelium mass. The number of the conidia in the resulting suspension was counted with a globulimeter and adjusted so as to be 1×10^5 conidia/ml with a sterilized physiological salt solution containing 0.1%(W/V) Tween 80. This solution was used as an inoculum solution. Casitone agar plate medium containing the DMSO solution of the test compound in a rate of 1% (V/V) was inoculated with the inoculum solution at four places thereof with a microplanter, and cultured with the medium allowed to stand at 37° C. for 48 hours. After culture, the diameter of the mycelium disks cultivated at the four inoculated parts was measured, and its mean value was obtained. The growth inhibitory rate was calculated according to the following equation, and the antimycotic activity was shown in the same manner as in Test Example 3-1.
Growth inhibitory rate (%)=(1-W'/Y')×100
Y': Diameter of mycelium disk of DMSO control group
W': Diameter of mycelium disk of test compound group

[3] = test system: Trichophyton mentagrophytes IFO 5810; experiment: In vitro antimicrobial activity on Trichophyton mentagrophytes; design: key: A: Fungus is not observed at all with the naked eye.; B: Presence of fungus is slightly observed on shaking the test tube.; C: Fungus of about less than one-fourth that of the DMSO control group is observed with the naked eye.; Fungus of about less than half that of the DMSO control group is observed with the naked eye; conditions: 10 (ppm); SGB, 27° C., 7 days
Experimental: 3-3 In vitro antimicrobial activity on Trichophyton mentagrophytes To Trichophyton mentagrophytes IFO 5810 precultured at 27° C. for 2 to 3 weeks on a Sabouraud's glucose agar (SGA) slant medium was added a sterilized physiological salt solution containing 0.1% (W/V) Tween 80. After conidia were made free from the solution, the solution was filtered through a sterilized two-sheet gauze to remove the mycelium mass. The number of the conidia in the resulting suspension was counted with a globulimeter and adjusted so as to be 1×10^6 conidia/ml with a sterilized physiological salt solution containing 0.1%(W/V) Tween 80. This solution was used as an inoculum solution. Thereafter, 0.1 ml of this solution and 0.1 ml of the dimethyl sulfoxide (DMSO) solution of the test compound were added to 9.8 ml of Sabouraud's glucose broth (SGB), and shake-cultured at 27° C. for 7 days.

Structure (SMILES) | inhibition of growth at 10 µg/mL [1] | inhibition of growth at 10 µg/mL [2] | Antimycotic activity (degree of growth, naked eye), T.mentagrophytes [3]
CC(C)COc1snc(OCC#CI)c1C#N [Compound 29] | 100% | 100% | A
CC(C)Oc1nsc(SCOCC#CI)c1C#N [Compound 56] | 100% | 100% | A
CCSc1snc(OCCC#CI)c1C#N [Compound 71] | 100% | 100% | A
CC(C)Oc1nsc(OCCC#CI)c1C#N [Compound 83] | 100% | 100% | A
CC(C)Sc1snc(OCOCC#CI)c1C#N [Compound 88] | 100% | 100% | A
CCSc1snc(OCOC(C)(C)C#CI)c1C#N [Compound 101] | 100% | 100% | A
CC(OCC#CI)Oc1nsc(N(C)C)c1C#N (stereo not drawn) [Compound 123] | 100% | 100% | A
N#Cc1c(OCOCC#CI)nsc1SCOCC#CI [Compound 141] | 100% | 100% | A
